Data reported in PubChem BioAssay (NCI).
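Interpolation was linear, between the two tested concentrations surrounding the appropriate level; five concentrations were tested over 48 hours in 96-well plates. Abbreviation: GI50, concentration required for 50% inhibition of growth. Definition used: TGI = concentration required for complete inhibition of growth.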

How the values were obtained:
Assay in all cases: NCI anticancer screen, dose series, 48 h
OVCAR-5 ovarian = system: OVCAR-5 ovarian
PC-3 prostate = system: PC-3 prostate
SF-295 CNS = system: SF-295 CNS
SK-OV-3 ovarian = system: SK-OV-3 ovarian
T-47D breast = system: T-47D breast
SR leukemia = system: SR leukemia
HOP-62 NSCLC = system: HOP-62 NSCLC
U251 CNS = system: U251 CNS
HT29 colon = system: HT29 colon
UACC-62 melanoma = system: UACC-62 melanoma
A549 NSCLC = system: A549 NSCLC
NCI-H460 lung = system: NCI-H460 lung
SK-MEL-5 melanoma = system: SK-MEL-5 melanoma
NCI/ADR-RES ovarian = system: NCI/ADR-RES ovarian
SW-620 colon = system: SW-620 colon
OVCAR-8 ovarian = system: OVCAR-8 ovarian
OVCAR-4 ovarian = system: OVCAR-4 ovarian
SK-MEL-28 melanoma = system: SK-MEL-28 melanoma
HS 578T breast = system: HS 578T breast
MDA-MB-435 = system: MDA-MB-435
EKVX NSCLC = system: EKVX NSCLC
SN12C renal = system: SN12C renal
NCI-H522 lung = system: NCI-H522 lung
OVCAR-3 ovarian = system: OVCAR-3 ovarian
LOX IMVI melanoma = system: LOX IMVI melanoma
SNB-75 CNS = system: SNB-75 CNS
HOP-92 NSCLC = system: HOP-92 NSCLC
RPMI-8226 leukemia = system: RPMI-8226 leukemia
HCT-15 colon = system: HCT-15 colon
KM12 colon = system: KM12 colon
NCI-H23 lung = system: NCI-H23 lung
NCI-H226 lung = system: NCI-H226 lung
MDA-MB-231 breast = system: MDA-MB-231 breast
HL-60(TB) leukemia = system: HL-60(TB) leukemia
DU-145 prostate = system: DU-145 prostate
786-0 renal = system: 786-0 renal
ACHN renal = system: ACHN renal
RXF 393 renal = system: RXF 393 renal
SNB-19 CNS = system: SNB-19 CNS
SF-268 CNS = system: SF-268 CNS
TK-10 renal = system: TK-10 renal
HCT-116 colon = system: HCT-116 colon
UO-31 renal = system: UO-31 renal
UACC-257 melanoma = system: UACC-257 melanoma
M14 melanoma = system: M14 melanoma
MOLT-4 leukemia = system: MOLT-4 leukemia
SK-MEL-2 melanoma = system: SK-MEL-2 melanoma
HCC-2998 colon = system: HCC-2998 colon
BT-549 breast = system: BT-549 breast
A498 renal = system: A498 renal
CCRF-CEM leukemia = system: CCRF-CEM leukemia
MCF7 breast = system: MCF7 breast
SF-539 CNS = system: SF-539 CNS
CAKI-1 renal = system: CAKI-1 renal
IGROV1 ovarian = system: IGROV1 ovarian
K-562 leukemia = system: K-562 leukemia
COLO 205 colon = system: COLO 205 colon

## COc1ccc(-c2nc3ccccn3c2/C=C/C(=O)c2cc(OC)c(OC)c(OC)c2)cc1
OVCAR-5 ovarian
  GI50: 9.33 µM
  TGI: 82.2 µM
PC-3 prostate
  GI50: 19.8 µM
  TGI: > 100 µM
SF-295 CNS
  GI50: 15.2 µM
  TGI: 69.5 µM
SK-OV-3 ovarian
  GI50: 14.8 µM
  TGI: > 100 µM
T-47D breast
  GI50: 2.59 µM
  TGI: 14 µM
SR leukemia
  GI50: 3.71 µM
  TGI: > 100 µM
HOP-62 NSCLC
  GI50: 36.2 µM
  TGI: > 100 µM
U251 CNS
  GI50: 3 µM
  TGI: 30.6 µM
HT29 colon
  GI50: 4.8 µM
  TGI: 32.4 µM
UACC-62 melanoma
  GI50: 5.58 µM
  TGI: > 100 µM
A549 NSCLC
  GI50: 7.96 µM
  TGI: > 100 µM
NCI-H460 lung
  GI50: 4.09 µM
  TGI: 31 µM
SK-MEL-5 melanoma
  GI50: 2.72 µM
  TGI: 14.3 µM
NCI/ADR-RES ovarian
  GI50: 3.36 µM
  TGI: 29.4 µM
SW-620 colon
  GI50: 4.16 µM
  TGI: > 100 µM
OVCAR-8 ovarian
  GI50: 3.92 µM
  TGI: > 100 µM
OVCAR-4 ovarian
  GI50: 5.72 µM
  TGI: > 100 µM
SK-MEL-28 melanoma
  GI50: 7.1 µM
  TGI: > 100 µM
HS 578T breast
  GI50: 2.89 µM
  TGI: 51.7 µM
MDA-MB-435
  GI50: 5.76 µM
  TGI: 27.6 µM
EKVX NSCLC
  GI50: 7.42 µM
  TGI: > 100 µM
SN12C renal
  GI50: 11.4 µM
  TGI: > 100 µM
NCI-H522 lung
  GI50: 3.12 µM
  TGI: 23.4 µM
OVCAR-3 ovarian
  GI50: 2.88 µM
  TGI: 9.67 µM
LOX IMVI melanoma
  GI50: 6.05 µM
  TGI: > 100 µM
SNB-75 CNS
  GI50: 5.49 µM
  TGI: 54.5 µM
HOP-92 NSCLC
  GI50: 2.36 µM
  TGI: 51.4 µM
RPMI-8226 leukemia
  GI50: 7.5 µM
  TGI: > 100 µM
HCT-15 colon
  GI50: 4.85 µM
  TGI: > 100 µM
KM12 colon
  GI50: 4.99 µM
  TGI: > 100 µM
NCI-H23 lung
  GI50: 3.41 µM
  TGI: 94.1 µM
NCI-H226 lung
  GI50: 24.1 µM
  TGI: > 100 µM
MDA-MB-231 breast
  GI50: 5.22 µM
  TGI: > 100 µM
HL-60(TB) leukemia
  GI50: 34 µM
  TGI: > 100 µM
DU-145 prostate
  GI50: 7.21 µM
  TGI: 41.1 µM
786-0 renal
  GI50: 3.9 µM
  TGI: > 100 µM
ACHN renal
  GI50: 3.26 µM
  TGI: > 100 µM
RXF 393 renal
  GI50: 2.94 µM
  TGI: > 100 µM
SNB-19 CNS
  GI50: 25.2 µM
  TGI: > 100 µM
SF-268 CNS
  GI50: 4 µM
  TGI: > 100 µM
TK-10 renal
  GI50: 4.16 µM
  TGI: > 100 µM
HCT-116 colon
  GI50: 2.26 µM
  TGI: 11.1 µM
UO-31 renal
  GI50: 1.31 µM
  TGI: > 100 µM
UACC-257 melanoma
  GI50: 5.85 µM
  TGI: > 100 µM
M14 melanoma
  GI50: 9.8 µM
  TGI: 28.6 µM
MOLT-4 leukemia
  GI50: 32.9 µM
  TGI: > 100 µM
SK-MEL-2 melanoma
  GI50: 4.95 µM
  TGI: > 100 µM
HCC-2998 colon
  GI50: 8.27 µM
  TGI: 42 µM
BT-549 breast
  GI50: 3.27 µM
  TGI: > 100 µM
A498 renal
  GI50: 10.4 µM
  TGI: 43.9 µM
CCRF-CEM leukemia
  GI50: 18.8 µM
  TGI: > 100 µM
MCF7 breast
  GI50: 2.38 µM
  TGI: 21.4 µM
SF-539 CNS
  GI50: 2.39 µM
  TGI: 11.5 µM
CAKI-1 renal
  GI50: 8.33 µM
  TGI: > 100 µM
IGROV1 ovarian
  GI50: 8.86 µM
  TGI: > 100 µM
K-562 leukemia
  GI50: 13.1 µM
  TGI: > 100 µM
COLO 205 colon
  GI50: 3.5 µM
  TGI: 13.5 µM
